According to patent publication US20230050846A1, “TREATMENT OF HEPATIC AND CARDIOVASCULAR DISORDERS” (LIFESEARCH, priority 2019, published 2023):
Peptide text beside a SMILES is read from it. * marks the point of attachment. Palmitoyl = CCCCCCCCCCCCCCCC(=O)*

How the values were obtained:
HepG2 cells = test: HDL endocytosis assay in hepatocytes; format: cell-based, human; conditions: 1 μM; HDL-Alexa568 50 μg/mL, 25 min; abolished by IF1 1 μM
Method: HepG2 cells were seeded on 96-well plates at 50,000 cells/well. HDL3 (d 1.12-1.21) were isolated from plasma of healthy human donors and referred to as HDL. HDL was fluorescently labeled with AlexaFluor®568 dye (A10238, Thermofisher Scientific) according the instructions of manufacturer. 1 h30 before the assay, the cells were serum starved for 1 h30 in order to stabilize nucleotide secretion. Cells were incubated with inhibitors (H49K, 1 μM) for 10 min before treatment with the different peptides (1 μM) or apoA-I (10 μg/ml) purified from human plasma. 5 min after peptide treatment, endocytosis was initiated by 50 μg/mL of AlexaFluor568®-labelled HDL. The same experiment was performed with a […] excess of unlabelled HDL (2.5 mg/mL) to determine the nonspecific fluorescence signal. After 25 min at 37° C., cells were then washed in serum-free DMEM and extracellular membrane-bound HDL was disassociated by incubating cells at 4° C. in serum-free DMEM for 90 min. Following washes, cells were lysate in NaOH 0.1M SDS 1% during 2 h, lysates were transferred in a black 96-wells plate and fluorescence was recorded at 568 nm (Varioscan flash). Fluorescence for each condition was substrate with the value obtained in unlabelled HDL condition, and results were expressed as the fold change as compared with the basal condition (untreated cells).

[1] = system: primary mouse hepatocytes; test: Steatotic primary mouse hepatocytes, intracellular triglyceride content; format: cell-based; conditions: 1 μM, 24 h
Method: Primary mouse hepatocytes were isolated as described in Example 3 from mice fed western-diet for 11-weeks (Envigo #TD.88137 containing 0.2% cholesterol, 42% kcal from fat, 34% sucrose by weight). Primary mouse hepatocytes were seeded in a 12-well plate at a density of 600,000 cells/well in growth medium and treated for 24 h with apoA-I (10 μg/mL), peptide of formula (I) (1 μM) or peptide of formula (II) (1 μM).
For measurement of intracellular triglyceride content, cells were washed with PBS and scraped in 5% NP-40 lysis buffer and heated for 10 min at 85° C. Triglycerides were then quantified using triglyceride commercial kit (Biolabo #87319). Values were normalized to protein concentration in cell lysates.

[2] = Stability in PBS (LC-HRMS); format: physicochemical; conditions: 4° C. and 37° C., 4 weeks
Method: Peptide of Formula (I) or peptide of Formula (II) were prepared at a concentration of 200 μg/mL in PBS or mixed with EDTA plasma or serum from human (Etablissement Frangais du Sang, EFS) or mouse (C57BL/6J, cardiac puncture). Aliquots from PBS samples (40 μL) were incubated at 4° C. or 37° C. for 0, 1, 2 and 4 weeks. Aliquots from plasma and serum samples (50 μL) were incubated at 4° C. or 37° C. for 0, 1, 2, 4, 6, 12, 24 h.
A mixed solution of peptides of formula (I) and (II) was constituted and serially diluted in PBS to obtain seven standard solutions, ranging from 200 μg/mL to 0.2 μg/mL. In parallel, a mixed solution of labelled peptides of Formula (I) and (II) (Thermo Scientific, Biopolymers Darmstadt, Germany) was prepared in PBS at 100 μg/mL. The mixed solution of labelled peptides (25 μL) was added to 25 μL of standard solutions as well as to PBS, plasma and serum samples. Acetonitrile (150 μL) was added to each sample to precipitate plasma/serum proteins. […] Peptides were analyzed according to their major exact m/z (i 5 ppm, Table 1) and each peptide signal was normalized with that of its labelled internal standard. Peptide concentrations were calculated using calibration curves plotted from standard solutions (linear regression, 1/x weighted, origin excluded).

In the case of `CCCCCCCCCCCCCCCC(=O)NCCCC[C@H](NC(=O)[C@H](CCC(=O)O)NC(=O)[C@H](CCCNC(=N)N)NC(=O)[C@H](CO)NC(=O)[C@H](CCC(N)=O)NC(=O)[C@H](C)NC(=O)[C@H](CCCNC(=N)N)NC(=O)[C@H](Cc1ccccc1)NC(=O)[C@H](Cc1ccc(O)cc1)NC(=O)[C@H](CCCNC(=N)N)NC(=O)[C@H](CCC(=O)O)NC(=O)[C@H](CCC(=O)O)NC(=O)[C@H](CCC(=O)O)NC(=O)[C@H](C)NC(=O)[C@H](CCC(N)=O)NC(=O)[C@H](CCC(=O)O)NC(=O)[C@H](CCCNC(=N)N)NC(=O)[C@H](CCCCN)NC(=O)CNC(=O)[C@H](Cc1ccccc1)NC(=O)[C@H](C)NC(=O)CNC(=O)CNC(=O)[C@H](C)NC(=O)[C@H](CCC(=O)O)NC(=O)[C@H](CCCNC(=N)N)NC(=O)[C@@H](NC(=O)[C@H](CO)NC(=O)CNC(=O)[C@H](C)NC(=O)CNC(=O)[C@H](CCCNC(=N)N)NC(C)=O)[C@@H](C)CC)C(N)=O` [peptide of formula (II), CH3CO-[SEQ ID NO: 1]-K-[palmitoyl]-NH2] (Ac-RGAGSIREAGGAFGKREQAEEERYFRAQSREK(Palmitoyl)-NH2), the “effect on HDL endocytosis” value (HepG2 cells) is reported as “stimulated”, the “intracellular accumulation of triglycerides vs PBS control” value [1] is reported as “significantly reduced” and the “stability in PBS” value [2] is reported as “stable”.
In the case of “Ac-RGAGSIREAGGAFGKREQAEEERYFRAQSRE-NH2 [peptide of formula (I), CH3CO-[SEQ ID NO: 1]-NH2]”, the “effect on HDL endocytosis” value (HepG2 cells) is reported as “stimulated”, the “intracellular accumulation of triglycerides vs PBS control” value [1] is reported as “significantly reduced” and the “stability in PBS” value [2] is reported as “stable”.
